Experimental data reported in patent EP0049049A1, “5-Amino-tetrazole derivatives, processes for their preparation and pharmaceutical compositions containing them” (GLAXO GROUP LIMITED, priority 1980, dated 1982).

test system: perfused rat stomach; assay: perfused rat stomach test (inhibition of gastric acid secretion stimulated via histamine receptors); format: in vivo; conditions: not given
From the text: Certain novel heterocyclic derivatives have now been found which have potent activity as H2-antagonists. […] Certain compounds according to the invention have the advantage of an extended duration of action .

SMILES	ED50
CN(C)Cc1cc(CSCCNc2nnnn2C)cs1 [5(b), N-[2-[[5-(dimethylamino)methyl-3-thienylmethyl]thio]ethyl]-1-methyl-lH-tetrazol-5-amine]	less than 0.22 mg/kg

same assay, conditions: read-out: ED50

SMILES	ED50
CC(C)n1nnnc1NCCCCOc1cccc(CN2CCCCC2)c1 [1(c), l-(l-methylethyl)-N-[4-[3-(1-piperidinylmethyl)phenoxy]butyl]-1H-tetrazol-5-amine]	< 0.22 mg/kg
CCCCCCNCc1cccc(OCCCNc2nnnn2C)c1 [7(b), N-[3-[3-[(hexylamino)methyl]phenoxy]propyl]-1-methyl-1H-tetrazol-5-amine hydrate (4:1)]	< 0.22 mg/kg
OCCn1nnnc1NCCCOc1cccc(CN2CCCCC2)c1 [Example 4, 5-[[3-[3-(1-piperidinylmethyl)phenoxy]propyl]amino]-1H-tetrazol-1-(2-ethanol) hydrate (4 : 1)]	< 0.22 mg/kg
Cn1nnnc1NCCCOc1cccc(CN2CCCCC2)c1 [l(a), 1-Methyl-N-[3-[3-(1-piperidinylmethyl)phenoxy]propyl]-1H-tetrazol-5-amine]	< 0.22 mg/kg
CN(C)Cc1cccc(OCCCNc2nnnn2C)c1 [l(d), l-methyl-N-[[3-[3-(dimethylamino)methyl]phenoxy]propyl]-lH-tetrazol-5-amine]	< 0.22 mg/kg
